Test results taken from US10081609B2, “Compounds for inducing proliferation and differentiation of cells, and methods of use thereof” (The Broad Institute, Inc., priority 2013, dated 2018).

Tests used:
[1] = test system: iHeps; assay: CYP450 activities of treated iHeps through isoenzyme-specific probes; type: cell-based, human
Experimental: Culture media were collected and frozen at −20° C. until analysis. Albumin content was measured through sandwich ELISA assays (MP Biomedicals, Fitzgerald, Bethyl Laboratories) using horseradish peroxidase detection and 3,3′,5,5′-tetramethylbenzidine (TMB, Fitzgerald Industries) as a substrate. Urea concentration was determined colorimetrically using diacetylmonoxime with acid and heat (Stanbio Labs). To quantify CYP450 activity, at 48 hours after small molecule exposure, cultures were incubated with substrates (coumarin from Sigma for CYP2A6, luciferin-IPA from Promega for CYP3A4) for 4 hours at 37° C. Incubation medium was collected and metabolite concentration quantified via luminescence, or fluorescence after hydrolization of potential metabolite conjugates by β-glucuronidase/arylsulfatase (Roche, Ind.).
The ability of compounds of the invention to affect the differentiation and maturation of iHeps was tested. Undifferentiated iPS cells were cultured on Matrigel, supported by primary mouse embryonic fibroblasts. […]
To confirm the staining results, secreted levels of albumin and AFP via ELISA, and CYP450 activities through isoenzyme-specific probes that are either fluorescent or luminescent were measured. […]

[2] = test system: iHeps; assay: Gene expression profiles of treated iHeps (Luminex); type: cell-based, human
Experimental: Cells were lysed using RLT buffer (Qiagen) or Trizol (Invitrogen) and purified using the Mini-RNeasy kit (Qiagen). Gene expression was determined using Luminex analysis, as previously described. Briefly, total RNA was immobilized on a Qiagen turbo capture 384-well plate, and reverse-transcribed using oligodT priming A biotinylated FlexMap tag sequence unique to each gene of interest and a phosphorylated downstream probe were then added to resulting cDNAs to generate biotinylated FlexMap-tagged amplicons. Universal PCR was then performed for 35 cycles using a biotinylated T7 forward primer and T3 reverse primer in buffer with dNTPs and Taq polymerase. FlexMap microsphere beads conjugated with antitag oligonucleotides were then added and allowed to hybridize. Amplicons were captured by streptavidin-phyoerythrin, and 100 events per bead were analyzed for internal bead color and phyoerythrin reporter fluorescence on a Luminex FlexMap 3D analyzer. Data for replicate loadings, expressed in mean fluorescent intensity of at least 100 beads per sample, were scaled to the human transferrin gene and row-normalized for heat map representation using GeneE open software (Broad Institute).
(§1) The ability of compounds of the invention to affect the differentiation and maturation of iHeps was tested. Undifferentiated iPS cells were cultured on Matrigel, supported by primary mouse embryonic fibroblasts. Once confluent, iPS cells were transitioned to differentiation media, with sequential addition of growth factors (Activin A, BMP-4, bFGF, HGF, and OSM) to guide differentiation, first into endoderm, then into hepatic progenitor cells and finally into iHeps. Compound treatment started on day 21 post initiation of differentiation and acted over a period of 9 days. FH1 and FPH2 were used to treat iHeps. FH1 doubled albumin secretion during primary screening (FIG. 4A left) in a dose-responsive manner (FIG. 4A right).
Euclidian clustering analyses groups untreated cells with fetal hepatocytes and treated cells with mature hepatocytes (FIG. 4C left). Of particular interest are ABC transporters, CYP3A4 and GSTP1 expression levels. ABC transporters are known to mature after birth. ABCB11, also known as bile-salt export pump (BSEP), increased ˜3 fold and ˜4 fold in expression levels with FPH2 and FH1 treatment, respectively, compared to untreated iHeps. In contrast, GSTP1 expression, whose levels decrease with maturity, remained low upon FPH2 and FH1 treatment compared to untreated iHeps (FIG. 4C right).

[3] = biological target: RSK2 (Homo sapiens, UniProt P51812); assay: Kinome analysis (panel of kinases); type: biochemical
Experimental: (§2) Selected compounds of the invention (FPH1 and FPH2; both at 1 μM concentration) were screened against a panel of kinases (FIG. 17).

[4] = biological target: CDK5 (Homo sapiens, UniProt Q00535); assay: Kinome analysis (panel of kinases); type: biochemical
Experimental: as §2

[5] = biological target: CLK1 (Homo sapiens, UniProt P49759); assay: Kinome analysis (panel of kinases); type: biochemical
Chain of CLK1 (P49759 whole entry): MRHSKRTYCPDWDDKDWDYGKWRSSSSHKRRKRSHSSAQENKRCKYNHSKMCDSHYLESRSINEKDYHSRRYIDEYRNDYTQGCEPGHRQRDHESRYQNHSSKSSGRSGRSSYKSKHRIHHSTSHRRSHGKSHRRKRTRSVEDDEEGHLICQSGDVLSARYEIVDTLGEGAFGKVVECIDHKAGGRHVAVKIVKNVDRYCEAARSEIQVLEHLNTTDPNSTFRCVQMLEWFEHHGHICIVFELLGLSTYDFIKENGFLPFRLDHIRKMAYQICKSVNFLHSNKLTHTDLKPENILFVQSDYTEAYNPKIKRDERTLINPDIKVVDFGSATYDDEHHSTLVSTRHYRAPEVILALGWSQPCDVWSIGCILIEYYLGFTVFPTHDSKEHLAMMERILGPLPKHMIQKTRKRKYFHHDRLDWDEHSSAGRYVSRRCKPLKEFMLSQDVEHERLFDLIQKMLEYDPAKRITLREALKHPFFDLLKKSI
Experimental: as §2

[6] = biological target: FMS (Homo sapiens, UniProt P07333); assay: Kinome analysis (panel of kinases); type: biochemical
Chain of FMS (P07333 20-972, species assumed): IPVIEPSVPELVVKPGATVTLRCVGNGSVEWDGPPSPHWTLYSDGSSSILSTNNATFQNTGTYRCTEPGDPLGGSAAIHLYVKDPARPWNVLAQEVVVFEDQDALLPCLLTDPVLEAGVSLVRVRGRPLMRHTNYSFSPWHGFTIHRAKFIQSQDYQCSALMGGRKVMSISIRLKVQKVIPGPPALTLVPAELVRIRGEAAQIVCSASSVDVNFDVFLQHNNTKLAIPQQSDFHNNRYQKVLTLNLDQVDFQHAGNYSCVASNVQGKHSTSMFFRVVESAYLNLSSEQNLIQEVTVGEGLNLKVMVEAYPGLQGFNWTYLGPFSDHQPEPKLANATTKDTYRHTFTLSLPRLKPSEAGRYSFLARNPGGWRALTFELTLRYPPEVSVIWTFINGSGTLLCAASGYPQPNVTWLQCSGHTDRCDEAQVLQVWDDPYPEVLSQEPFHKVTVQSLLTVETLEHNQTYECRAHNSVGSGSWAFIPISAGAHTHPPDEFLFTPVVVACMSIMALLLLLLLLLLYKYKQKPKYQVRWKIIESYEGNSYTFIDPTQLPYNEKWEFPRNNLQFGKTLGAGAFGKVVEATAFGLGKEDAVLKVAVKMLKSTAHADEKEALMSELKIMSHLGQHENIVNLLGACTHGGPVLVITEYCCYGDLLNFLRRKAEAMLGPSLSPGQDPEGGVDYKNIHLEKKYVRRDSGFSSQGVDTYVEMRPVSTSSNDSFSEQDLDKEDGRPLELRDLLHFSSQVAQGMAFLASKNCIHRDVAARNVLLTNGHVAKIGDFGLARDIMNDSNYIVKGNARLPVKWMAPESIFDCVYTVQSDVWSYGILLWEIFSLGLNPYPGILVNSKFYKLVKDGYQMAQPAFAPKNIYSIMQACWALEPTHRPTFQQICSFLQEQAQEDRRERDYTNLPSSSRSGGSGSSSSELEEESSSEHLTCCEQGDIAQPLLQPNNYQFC
Experimental: as §2

[7] = biological target: eEF-2K (Homo sapiens, UniProt O00418); assay: Kinome analysis (panel of kinases); type: biochemical
Experimental: as §2

[8] = biological target: PI3KC2 α (Homo sapiens, UniProt O00443); assay: Kinome analysis (panel of kinases); type: biochemical
Experimental: as §2

[9] = biological target: CLK4 (Homo sapiens, UniProt Q9HAZ1); assay: Kinome analysis (panel of kinases); type: biochemical
Experimental: as §2

[10] = biological target: RSK3 (Homo sapiens, UniProt Q15349); assay: Kinome analysis (panel of kinases); type: biochemical
Experimental: as §2

[11] = biological target: PDGFRβ (Homo sapiens, UniProt P09619); assay: Kinome analysis (panel of kinases); type: biochemical
Experimental: as §2

[12] = biological target: RSK4 (Homo sapiens, UniProt Q9UK32); assay: Kinome analysis (panel of kinases); type: biochemical
Experimental: as §2

[13] = biological target: ALK (Homo sapiens, UniProt Q9UM73); assay: Kinome analysis (panel of kinases); type: biochemical
Chain of ALK (Q9UM73 19-1620, species assumed): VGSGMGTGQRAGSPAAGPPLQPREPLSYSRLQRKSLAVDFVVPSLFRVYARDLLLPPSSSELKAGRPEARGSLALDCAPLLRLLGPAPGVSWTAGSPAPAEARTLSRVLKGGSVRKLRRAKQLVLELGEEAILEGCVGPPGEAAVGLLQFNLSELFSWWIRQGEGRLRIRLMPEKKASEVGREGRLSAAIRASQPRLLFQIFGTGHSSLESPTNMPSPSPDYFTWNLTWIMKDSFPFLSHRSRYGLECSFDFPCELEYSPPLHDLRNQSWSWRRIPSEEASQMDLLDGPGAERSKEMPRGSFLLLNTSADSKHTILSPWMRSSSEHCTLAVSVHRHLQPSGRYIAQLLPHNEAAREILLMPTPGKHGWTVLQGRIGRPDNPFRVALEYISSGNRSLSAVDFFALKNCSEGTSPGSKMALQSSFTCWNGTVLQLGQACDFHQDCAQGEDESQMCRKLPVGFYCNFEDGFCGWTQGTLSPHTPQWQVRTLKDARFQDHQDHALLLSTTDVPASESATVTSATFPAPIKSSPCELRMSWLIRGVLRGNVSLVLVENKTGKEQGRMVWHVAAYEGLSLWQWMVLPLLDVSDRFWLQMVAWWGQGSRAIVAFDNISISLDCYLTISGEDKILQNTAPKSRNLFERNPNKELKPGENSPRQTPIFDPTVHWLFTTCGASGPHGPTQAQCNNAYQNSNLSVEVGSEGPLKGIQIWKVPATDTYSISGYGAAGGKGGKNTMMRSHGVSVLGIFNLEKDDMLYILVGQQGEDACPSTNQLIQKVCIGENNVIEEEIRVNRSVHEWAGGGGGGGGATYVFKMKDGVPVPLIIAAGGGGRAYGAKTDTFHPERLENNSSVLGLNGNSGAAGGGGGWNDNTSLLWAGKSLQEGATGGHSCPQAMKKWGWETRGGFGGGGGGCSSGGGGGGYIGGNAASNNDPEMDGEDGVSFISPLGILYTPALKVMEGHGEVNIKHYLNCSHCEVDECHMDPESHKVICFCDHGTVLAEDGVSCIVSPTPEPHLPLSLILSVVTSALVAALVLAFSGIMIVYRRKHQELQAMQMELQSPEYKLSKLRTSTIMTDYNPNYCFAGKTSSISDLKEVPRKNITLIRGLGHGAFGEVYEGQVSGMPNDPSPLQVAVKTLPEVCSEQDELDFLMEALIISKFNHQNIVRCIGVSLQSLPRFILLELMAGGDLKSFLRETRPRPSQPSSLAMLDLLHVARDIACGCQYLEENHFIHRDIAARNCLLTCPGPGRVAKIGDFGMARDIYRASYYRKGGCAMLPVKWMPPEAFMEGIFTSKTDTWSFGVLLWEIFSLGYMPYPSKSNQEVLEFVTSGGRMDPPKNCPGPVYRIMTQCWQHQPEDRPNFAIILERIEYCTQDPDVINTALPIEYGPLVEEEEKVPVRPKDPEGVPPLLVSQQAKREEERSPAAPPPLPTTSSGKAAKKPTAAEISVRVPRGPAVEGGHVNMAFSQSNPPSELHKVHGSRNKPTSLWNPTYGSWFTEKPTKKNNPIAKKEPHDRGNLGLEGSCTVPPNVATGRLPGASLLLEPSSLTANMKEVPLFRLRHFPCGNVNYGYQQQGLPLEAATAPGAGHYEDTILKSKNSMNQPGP
Experimental: as §2

[14] = biological target: FAK (Homo sapiens, UniProt Q05397); assay: Kinome analysis (panel of kinases); type: biochemical
Experimental: as §2

[15] = biological target: NEK2 (Homo sapiens, UniProt P51955); assay: Kinome analysis (panel of kinases); type: biochemical
Chain of NEK2 (P51955 whole entry, species assumed): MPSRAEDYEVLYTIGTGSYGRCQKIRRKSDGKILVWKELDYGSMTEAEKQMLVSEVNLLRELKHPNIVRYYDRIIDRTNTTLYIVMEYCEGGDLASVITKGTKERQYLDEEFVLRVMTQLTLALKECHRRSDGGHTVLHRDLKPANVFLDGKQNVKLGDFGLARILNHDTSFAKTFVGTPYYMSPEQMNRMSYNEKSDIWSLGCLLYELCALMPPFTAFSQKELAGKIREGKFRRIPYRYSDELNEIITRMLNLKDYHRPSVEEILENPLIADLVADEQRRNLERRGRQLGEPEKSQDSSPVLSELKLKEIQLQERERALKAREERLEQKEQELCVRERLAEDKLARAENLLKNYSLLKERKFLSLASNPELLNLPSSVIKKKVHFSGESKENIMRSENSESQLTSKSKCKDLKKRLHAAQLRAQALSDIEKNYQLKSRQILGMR
Experimental: as §2

[16] = biological target: Ron (Homo sapiens, UniProt Q04912); assay: Kinome analysis (panel of kinases); type: biochemical
Chain of Ron (Q04912 25-1400, species assumed): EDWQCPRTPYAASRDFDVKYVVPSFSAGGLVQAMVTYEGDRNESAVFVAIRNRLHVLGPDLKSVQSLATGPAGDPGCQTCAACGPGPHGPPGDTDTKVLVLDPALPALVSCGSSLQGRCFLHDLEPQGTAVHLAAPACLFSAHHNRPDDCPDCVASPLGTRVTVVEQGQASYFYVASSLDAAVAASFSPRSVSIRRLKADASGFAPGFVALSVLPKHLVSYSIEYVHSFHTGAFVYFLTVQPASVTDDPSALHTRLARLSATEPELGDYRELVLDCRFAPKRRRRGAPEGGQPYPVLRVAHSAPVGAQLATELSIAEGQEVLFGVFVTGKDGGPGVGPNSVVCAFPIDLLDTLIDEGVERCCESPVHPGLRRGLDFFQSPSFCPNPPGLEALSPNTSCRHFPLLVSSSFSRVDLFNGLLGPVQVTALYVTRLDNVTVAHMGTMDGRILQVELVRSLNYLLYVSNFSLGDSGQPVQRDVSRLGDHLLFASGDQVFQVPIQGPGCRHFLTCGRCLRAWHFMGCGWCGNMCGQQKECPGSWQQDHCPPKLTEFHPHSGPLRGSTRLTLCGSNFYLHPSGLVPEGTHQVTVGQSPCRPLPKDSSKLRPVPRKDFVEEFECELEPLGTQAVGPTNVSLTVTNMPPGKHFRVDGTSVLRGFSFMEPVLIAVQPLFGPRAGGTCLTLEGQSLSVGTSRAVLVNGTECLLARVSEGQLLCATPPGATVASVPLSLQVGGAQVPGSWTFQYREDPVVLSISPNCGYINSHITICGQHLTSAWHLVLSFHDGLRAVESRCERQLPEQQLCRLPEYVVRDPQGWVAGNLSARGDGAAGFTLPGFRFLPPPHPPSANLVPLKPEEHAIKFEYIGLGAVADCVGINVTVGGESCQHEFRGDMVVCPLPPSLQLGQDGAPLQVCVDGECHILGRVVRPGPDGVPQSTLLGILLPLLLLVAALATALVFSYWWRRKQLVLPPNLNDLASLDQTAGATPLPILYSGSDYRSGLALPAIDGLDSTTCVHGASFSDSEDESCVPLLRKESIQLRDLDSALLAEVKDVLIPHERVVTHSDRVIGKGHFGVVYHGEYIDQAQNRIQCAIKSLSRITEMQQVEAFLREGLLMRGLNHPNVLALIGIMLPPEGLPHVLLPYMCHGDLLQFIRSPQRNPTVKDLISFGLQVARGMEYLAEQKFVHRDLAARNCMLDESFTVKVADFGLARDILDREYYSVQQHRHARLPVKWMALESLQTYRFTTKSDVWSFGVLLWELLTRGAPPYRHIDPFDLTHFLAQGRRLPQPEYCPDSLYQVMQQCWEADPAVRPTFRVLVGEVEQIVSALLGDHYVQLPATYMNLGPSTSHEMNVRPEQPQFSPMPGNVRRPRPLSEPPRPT
Experimental: as §2

[17] = biological target: CaMK1 δ (Homo sapiens, UniProt Q8IU85); assay: Kinome analysis (panel of kinases); type: biochemical
Experimental: as §2

[18] = test system: iHeps; assay: Differentiation of human iPS-derived hepatocytes (iHeps): morphology and immunofluorescent staining; type: cell-based
Experimental: as §1
To examine the effects of FH1 and FPH2 at the protein level, AFP, albumin and CYP3A4 levels weew visualized via immunofluorescent staining. […] This is in agreement with primary screening results as well as earlier morphological findings. Untreated cultures had islands that double stain for albumin and the fetal marker AFP, with very little presence of the mature marker CYP3A4.

[19] = test system: iPS-derived endothelial cells; assay: Differentiation of iPS-derived endothelial cells (nitric oxide); type: cell-based
Experimental: Cells were assayed for nitric oxide (NO), a mature marker for endothelial cells. CB=FPH2, M=FH1, E=PH1, while Null and DMSO are control runs with no additive and vehicle only, respectively.

- CYP3A4 activity increase [1]: 45 times
- inhibition at 1 µM [3]: 6.7 to 18.4%
- inhibition at 1 µM [4]: 6.7 to 18.4%
- inhibition at 1 µM [5]: 6.7 to 18.4%
- inhibition at 1 µM [6]: 28%
- remaining activity at 1 µM [6]: 72%
- inhibition at 1 µM [7]: 6.7 to 18.4%
- inhibition at 1 µM [8]: 6.7 to 18.4%
- inhibition at 1 µM [9]: 6.7 to 18.4%
- inhibition at 1 µM [10]: 6.7 to 18.4%
- inhibition at 1 µM [11]: 6.7 to 18.4%
- inhibition at 1 µM [12]: 6.7 to 18.4%
- inhibition at 1 µM [13]: 23%
- remaining activity at 1 µM [13]: 77%
- inhibition at 1 µM [14]: 6.7 to 18.4%
- inhibition at 1 µM [15]: 6.7 to 18.4%
- inhibition at 1 µM [16]: 6.7 to 18.4%
- inhibition at 1 µM [17]: 6.7 to 18.4%
- hepatocyte phenotype of treated iHeps ([18]; treatment from day 21, 9 days): more mature hepatocyte phenotypes
SMILES: Cc1ccc(Cl)cc1N(CC(=O)Nc1c(F)cccc1F)S(C)(=O)=O [FPH2, 2-(N-(5-chloro-2-methylphenyl)methylsulfonamido)-N-(2,6-difluorophenyl)acetamide]
- ABCB11 (BSEP) expression level increase compared to untreated iHeps [2]: ~3 fold
- GSTP1 expression compared to untreated iHeps [2]: remained low
- albumin staining (immunofluorescent) ([18]; treated iHeps): dramatic increases
- differentiation of iPS-derived endothelial cells (nitric oxide) [19]: induce differentiation
